Test results: PMC11089204 (Frontiers in Pharmacology, 2024)

What was measured:
[1] = Metabolites in human plasma after oral psilocybin (reanalysed study samples); settings: for Tmax: human, plasma, po, 30 mg
[2] = Pharmacokinetics and metabolites in mouse plasma after oral psilocybin; format: in vivo, C57BL/6J mice; settings: for half-life / Cmax / Tmax: male, C57BL/6J, po, n = 5; for half-life: mouse, plasma, 3 mg/kg, read-out: elimination half-life t1/2 (mean ± SD) (converted); for Cmax: read-out: Cmax (mean ± SD); for Tmax: read-out: tmax (mean ± SD)
Description: C57BL/6J adult male mice (Janvier, Le Genest-Saint-Isle, France) were maintained in littermate pairs in standard cages (containing sawdust, a sleeping chamber, tissue paper, and a wood stick) with water and pellet food available ad libitium. The colony room was on a reversed light-dark cycle (dark phase 07:00 to 19:00) with temperature at 22°C and humidity at 50–60%. A total of 10 mice were dosed orally with either 3 mg/kg bodyweight psilocybin (n = 5) or saline solution (n = 5). Dosing and blood sampling were conducted between 09:00 and 13:00. The mouse was placed in a plastic restrainer with the tail protruding through a hole in the end of the tube. The tail was immersed in warm water for 1 min for vasodilation and then a small incision was made on the lateral tail surface near the distal tip. 50 μL of blood was massaged gently into an EDTA-coated capillary blood tube (Mircovette, Sarstedt, Nümbrecht, Germany). The first (baseline) blood sample was collected directly before compound administration via oral gavage and the mouse was then returned to the home cage. Further blood samples were collected at 15, 30, 60, and 120 min post-treatment. Each sample was drawn from the same incision site, with mice maintained in the home cage in the intervening periods. The blood samples were stored on ice and centrifuged for 10 min at 780 × g and 4°C. Subsequently, the plasma was transferred into cryotubes (Protein LoBind, Eppendorf) and stored at −80 °C until analysis. All procedures were conducted under a permit for animal experimentation (ZH038/2022) issued by the Veterinary Office Zurich in accordance with the Animal Protection Act (1978) of Switzerland. The use of psilocybin was authorized by the Federal Office of Public Health (FOPH).
Pharmacokinetic parameters were calculated using Phoenix WinNonlin software (version 8.1.0, Certara, Princeton, USA). The elimination half-life (t1/2, min) was assessed as t1/2 = ln(2)/λ, while the elimination constant was calculated by linear regression in the terminal elimination phase. The maximal plasma concentration (Cmax, ng/mL) and the time to reach this concentration (tmax, h) were direct read-outs of the graphical plots.

[3] = biological target: T1, recombinant MAO-A (Homo sapiens, UniProt P21397); assay: Incubation with recombinant MAO-A enzymes; format: in vitro ADME; settings: for metabolite concentration formed from psilocin: 300 min; for metabolite formation from psilocin in presence of clorgyline: rec. MAO-A with clorgyline
T1 construct: purchased Corning Life Sciences B.V
T1 sequence (P21397 1-527): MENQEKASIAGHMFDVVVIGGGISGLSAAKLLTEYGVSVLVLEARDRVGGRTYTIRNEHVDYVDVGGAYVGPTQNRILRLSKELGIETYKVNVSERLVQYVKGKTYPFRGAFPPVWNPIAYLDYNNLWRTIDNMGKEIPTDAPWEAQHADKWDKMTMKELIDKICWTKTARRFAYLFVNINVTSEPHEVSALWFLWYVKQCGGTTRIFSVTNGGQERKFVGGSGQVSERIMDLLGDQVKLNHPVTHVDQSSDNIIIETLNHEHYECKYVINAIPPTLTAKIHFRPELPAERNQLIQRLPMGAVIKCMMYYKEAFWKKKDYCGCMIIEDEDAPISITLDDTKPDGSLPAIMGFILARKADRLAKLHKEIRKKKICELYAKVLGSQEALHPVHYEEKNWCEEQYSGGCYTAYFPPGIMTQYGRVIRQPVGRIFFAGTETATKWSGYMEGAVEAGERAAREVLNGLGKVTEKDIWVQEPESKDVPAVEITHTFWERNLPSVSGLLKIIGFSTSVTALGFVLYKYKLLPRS
Description: (§1) Corning UltraPool human liver microsomes (HLM) 150 (20 mg/mL), human intestinal microsomes (HIM) pool (10 mg/mL) as well as recombinant human CYP enzymes (with P450 oxidoreductase, OR) including CYP1A2+OR (0.5 nmol), CYP2B6+OR (0.5 nmol), CYP2C8+OR (1.0 nmol), CYP2C9*1+OR (1 nmol), CYP2C19+OR (0.5 nmol), CYP2D6*1+OR (0.5 nmol), CYP2E1+OR + cytochrome b5 (1 nmol), CYP3A4+OR + cytochrome b5 (0.5 nmol), MAO-A (5 mg/mL), MAO-B (5 mg/mL), and UGT1A10 (5 mg/mL) were purchased from Corning Life Sciences B.V (Amsterdam, Netherlands). All microsomes and recombinant enzyme solutions were aliquoted and stored at −80 °C until further use.
The MAO inhibition assay was based on the assay described in section 2.5.1 and performed identically if not otherwise stated.

[4] = tested on: human liver microsomes (HLM); assay: Psilocin incubation with human liver microsomes (CYP inhibition assay); format: in vitro ADME; settings: for metabolite concentration formed from psilocin / psilocin concentration (mean ± SD): 1,000 nM psilocin with HLM; for metabolite concentration formed from psilocin: 240 min incubation; for psilocin concentration: absence of HLM
Description: as §1
(§2) The total volume of the reaction mixture was 500 μL. […] Samples were either directly analyzed by liquid chromatography tandem mass spectrometry (LC-MS/MS) or briefly stored at −20°C until analysis.

[5] = biological target: T2, recombinant CYP3A4 (Homo sapiens, UniProt P08684); assay: Incubation with recombinant CYP3A4 enzymes; format: in vitro ADME; settings: for formation of metabolite from psilocin: rec. CYP3A4
T2 construct: purchased Corning Life Sciences B.V
Description: as §1, §2

[6] = biological target: T3, recombinant CYP2D6 (Homo sapiens, UniProt P10635); assay: Incubation with recombinant CYP2D6 enzymes; format: in vitro ADME
T3 construct: purchased Corning Life Sciences B.V
Description: as §1, §2

[7] = biological target: T4, MAO-A in human liver microsomes (HLM) (Homo sapiens, UniProt P21397); assay: Monoamine oxidase A inhibition in human liver microsomes; format: in vitro ADME; settings: for biotransformation on incubation with HLM: 1,000 nM 4-HIAA or 4-HTP incubated with HLM; for metabolite concentration formed from psilocin (mean ± SD) / metabolite formation from psilocin in presence of clorgyline: 1,000 nM psilocin; for metabolite concentration formed from psilocin (mean ± SD): HLM alone, t = 240 min; for metabolite formation from psilocin in presence of clorgyline: HLM with MAO-A inhibitor clorgyline
T4 construct: tissue Corning Life Sciences B.V; host or cells: pooled human liver microsomes
T4 sequence (P21397 1-527): T1 sequence (P21397 1-527)

[8] = mouse plasma, 3 mg/kg psilocybin p.o.

T3 sequence (P10635 whole entry): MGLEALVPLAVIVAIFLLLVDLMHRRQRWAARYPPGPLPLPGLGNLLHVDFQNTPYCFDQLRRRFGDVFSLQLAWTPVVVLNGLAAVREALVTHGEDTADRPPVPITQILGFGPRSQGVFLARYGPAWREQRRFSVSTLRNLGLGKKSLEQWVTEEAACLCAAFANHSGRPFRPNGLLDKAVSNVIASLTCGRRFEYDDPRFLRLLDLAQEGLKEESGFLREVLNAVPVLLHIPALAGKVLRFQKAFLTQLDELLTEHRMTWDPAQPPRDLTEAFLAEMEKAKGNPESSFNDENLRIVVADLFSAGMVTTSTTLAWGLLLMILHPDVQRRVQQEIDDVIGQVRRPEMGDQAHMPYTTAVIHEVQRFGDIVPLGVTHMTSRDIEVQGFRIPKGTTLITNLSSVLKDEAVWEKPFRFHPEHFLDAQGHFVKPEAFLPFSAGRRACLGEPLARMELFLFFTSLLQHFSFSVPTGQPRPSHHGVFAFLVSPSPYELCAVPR
T2 sequence (P08684 2-503 limits assumed): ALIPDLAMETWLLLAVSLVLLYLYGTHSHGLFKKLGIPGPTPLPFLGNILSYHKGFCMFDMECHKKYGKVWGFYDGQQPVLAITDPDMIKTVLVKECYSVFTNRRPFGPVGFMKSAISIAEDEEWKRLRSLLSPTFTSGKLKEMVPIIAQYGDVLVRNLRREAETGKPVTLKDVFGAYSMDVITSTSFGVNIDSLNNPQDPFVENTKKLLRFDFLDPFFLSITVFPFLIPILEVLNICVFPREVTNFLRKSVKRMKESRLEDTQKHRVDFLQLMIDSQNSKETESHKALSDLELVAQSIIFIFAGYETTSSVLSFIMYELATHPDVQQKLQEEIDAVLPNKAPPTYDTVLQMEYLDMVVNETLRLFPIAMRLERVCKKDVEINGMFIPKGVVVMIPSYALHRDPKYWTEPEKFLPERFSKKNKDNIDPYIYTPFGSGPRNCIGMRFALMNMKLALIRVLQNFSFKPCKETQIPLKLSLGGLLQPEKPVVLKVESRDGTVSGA

Row | SMILES | Tmax [1] [min] | half-life [2, 8] [min] | Cmax [2, 8] [ng/mL] | Tmax [2, 8] [min] | metabolite concentration formed from psilocin ([3]; 1,000 nM psilocin, rec. MAO-A) [nM] | metabolite formation from psilocin in presence of clorgyline [3] | metabolite concentration formed from psilocin [4] [nM] | formation of metabolite from psilocin [5] | formation of metabolite from psilocin ([6]; rec. CYP2D6) | biotransformation on incubation with HLM [7] | metabolite concentration formed from psilocin (mean ± SD) [7] [nM] | metabolite formation from psilocin in presence of clorgyline [7] | also measured
1 | O=C(O)Cc1c[nH]c2cccc(O)c12 [4-HIAA, 4-hydroxyindole-3-acetic acid] | ~150 | 45 ± 6.6 | 84.9 ± 17.7 | 18 ± 6.6 | 20.1 ± 2.8 | inhibited | 43.0 ± 7.9 | neither observed | neither observed | did not lead to any biotransformation | 8.5 ± 3.8 | complete inhibition | concentrations relative to psilocin (lower) ([2]; mouse plasma): 2 fold; elimination half-life in mice relative to humans (shorter) ([2]; mouse versus human): more than 2 fold
2 | CN(C)CCc1c[nH]c2cccc(O)c12 [psilocin, 4-hydroxy-N,N-dimethyltryptamine] | ~150 | 54.6 ± 6.6 | 198 ± 28 | 18 ± 6.6 |  |  |  |  |  |  |  |  | change of psilocin concentration ([3]; 1,000 nM psilocin, rec. MAO-A): did not visibly decrease; psilocin concentration (mean ± SD) ([4]; after 240 min): 829 ± 32 nM; psilocin concentration (mean ± SD) ([4]; start of incubation): 1,162 ± 146 nM; effect of targeted inhibition of specific CYP enzymes in HLM on psilocin degradation ([4]; 1,000 nM psilocin, HLM with selective CYP inhibitors): did not lead to a clear inhibition; psilocin concentration ([4]; t = 0 min): 1,141 ± 74 nM; psilocin concentration ([4]; t = 240 min): 1,096 ± 105 nM; decrease of psilocin concentration / psilocin metabolized ([5]; 1,000 nM psilocin, rec. CYP3A4, 240 min): 40%; psilocin concentration ([5]; rec. CYP3A4, t = 0 min): 916 ± 145 nM; psilocin concentration ([5]; rec. CYP3A4, t = 240 min): 546 ± 41 nM; psilocin metabolized ([5]; rec. CYP3A4 with ketoconazole, 240 min): 26%; psilocin concentration ([5]; rec. CYP3A4 with ketoconazole, t = 0 min): 973 ± 133 nM; psilocin concentration ([5]; rec. CYP3A4 with ketoconazole, t = 240 min): 720 ± 71 nM; psilocin concentration (mean ± SD) ([6]; 1,000 nM psilocin, rec. CYP2D6, t = 0 min): 937 ± 145 nM; psilocin concentration (mean ± SD) ([6]; 1,000 nM psilocin, rec. CYP2D6, t = 240 min): 21.1 ± 14.2 nM; psilocin metabolized ([6]; rec. CYP2D6): ~100%; psilocin concentration (mean ± SD) ([6]; rec. CYP2D6 with quinidine, t = 0 min): 1,081 ± 241 nM; psilocin concentration (mean ± SD) ([6]; rec. CYP2D6 with quinidine, t = 240 min): 747 ± 30 nM; change of psilocin concentration ([7]; 1,000 nM psilocin with HLM): did not visibly decrease
3 | OCCc1c[nH]c2cccc(O)c12 [4-HTP, 4-hydroxytryptophol] |  |  |  |  | 16.9 ± 2.9 | inhibited | 43.4 ± 6.0 | neither observed | neither observed | did not lead to any biotransformation | 25.3 ± 6.0 | complete inhibition | detection in human plasma ([1]; 30 mg psilocybin p.o., n = 5): neither norpsilocin nor 4-HTP was detected; detection in mouse plasma ([2]; 3 mg/kg psilocybin p.o.): could not be observed
